This assay concerns the target mitochondrial respiratory chain complex I (Homo sapiens, UniProt O75251+O75306+P03886). The assay is described as follows: spectrophotometric NADH:decylubiquinone oxidation in DU145 homogenate. The format is cell-based.

mitochondrial respiratory chain complex I, sequence (P03886 whole entry): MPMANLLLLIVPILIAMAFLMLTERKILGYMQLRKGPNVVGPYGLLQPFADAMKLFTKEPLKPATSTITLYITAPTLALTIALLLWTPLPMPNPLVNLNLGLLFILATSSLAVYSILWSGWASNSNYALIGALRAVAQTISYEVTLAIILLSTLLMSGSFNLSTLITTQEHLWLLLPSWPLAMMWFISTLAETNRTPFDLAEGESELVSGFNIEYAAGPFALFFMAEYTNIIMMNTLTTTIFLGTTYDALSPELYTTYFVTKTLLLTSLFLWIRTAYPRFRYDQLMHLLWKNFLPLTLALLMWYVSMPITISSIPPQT
mitochondrial respiratory chain complex I, sequence (O75306 34-463): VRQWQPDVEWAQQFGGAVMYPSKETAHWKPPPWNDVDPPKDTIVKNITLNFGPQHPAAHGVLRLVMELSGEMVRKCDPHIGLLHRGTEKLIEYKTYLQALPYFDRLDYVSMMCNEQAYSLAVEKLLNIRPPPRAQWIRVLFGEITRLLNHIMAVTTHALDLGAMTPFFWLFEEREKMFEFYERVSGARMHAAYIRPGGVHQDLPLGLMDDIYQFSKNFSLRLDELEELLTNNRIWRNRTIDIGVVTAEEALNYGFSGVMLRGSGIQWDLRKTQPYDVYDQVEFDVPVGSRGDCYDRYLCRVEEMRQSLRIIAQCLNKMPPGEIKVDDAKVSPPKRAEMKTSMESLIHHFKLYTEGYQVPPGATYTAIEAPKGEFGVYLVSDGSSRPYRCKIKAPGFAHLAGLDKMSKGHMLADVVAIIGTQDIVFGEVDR
mitochondrial respiratory chain complex I, sequence (O75251 39-213): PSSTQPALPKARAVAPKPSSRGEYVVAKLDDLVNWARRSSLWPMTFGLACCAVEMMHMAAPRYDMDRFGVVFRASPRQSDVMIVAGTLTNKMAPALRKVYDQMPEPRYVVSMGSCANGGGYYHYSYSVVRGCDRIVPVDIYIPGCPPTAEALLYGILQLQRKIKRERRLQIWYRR

Compound `CCCCN1CCCC[C@H]1C(=O)Nc1c(C)cccc1C` [levobupivacaine] showed a Ki of 600 µM.

These data come from article PMC6019688 (Redox Biology, 2018).
